Laboratory results reported in the supplement of paper PMC11451515.

Test system: P12-Ichikawa
Test: cell viability relative to DMSO control; higher = less cytotoxic
Settings: 48 h
In short: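 NOMO1 or SEM (500 cells/well) or P12-Ichikawa (1000 cells/well) leukemia cells were adapted for at least four passages in each medium. They were seeded in 1536-well plates (5 μl) and pin-dosed with library compounds in DMSO over an 11-point threefold series, 47 μM to 0.79 nM. CellTiter-Glo One luminescence was read after 48 h at 37°C. Viability is the per-plate percentage relative to DMSO wells, with cell-free wells as background.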

[1] = HPLM + 10% dialyzed FBS, 0.000781 µM
[2] = HPLM + 10% dialyzed FBS, 0.00234 µM
[3] = HPLM + 10% dialyzed FBS, 0.00702 µM
[4] = HPLM + 10% dialyzed FBS, 0.0211 µM
[5] = HPLM + 10% dialyzed FBS, 0.0632 µM
[6] = HPLM + 10% dialyzed FBS, 0.19 µM
[7] = HPLM + 10% dialyzed FBS, 0.569 µM
[8] = HPLM + 10% dialyzed FBS, 1.71 µM
[9] = HPLM + 10% dialyzed FBS, 5.12 µM
[10] = HPLM + 10% dialyzed FBS, 15.4 µM
[11] = HPLM + 10% dialyzed FBS, 46.1 µM
[12] = RPMI 5 mM glucose + 10% FBS, 0.000781 µM
[13] = RPMI 5 mM glucose + 10% FBS, 0.00234 µM
[14] = RPMI 5 mM glucose + 10% FBS, 0.00702 µM
[15] = RPMI 5 mM glucose + 10% FBS, 0.0211 µM
[16] = RPMI 5 mM glucose + 10% FBS, 0.0632 µM
[17] = RPMI 5 mM glucose + 10% FBS, 0.19 µM
[18] = RPMI 5 mM glucose + 10% FBS, 0.569 µM
[19] = RPMI 5 mM glucose + 10% FBS, 1.71 µM
[20] = RPMI 5 mM glucose + 10% FBS, 5.12 µM
[21] = RPMI 5 mM glucose + 10% FBS, 15.4 µM
[22] = RPMI 5 mM glucose + 10% FBS, 46.1 µM
[23] = RPMI 5 mM glucose + 10% dialyzed FBS, 0.000781 µM
[24] = RPMI 5 mM glucose + 10% dialyzed FBS, 0.00234 µM
[25] = RPMI 5 mM glucose + 10% dialyzed FBS, 0.00702 µM
[26] = RPMI 5 mM glucose + 10% dialyzed FBS, 0.0211 µM
[27] = RPMI 5 mM glucose + 10% dialyzed FBS, 0.0632 µM
[28] = RPMI 5 mM glucose + 10% dialyzed FBS, 0.19 µM
[29] = RPMI 5 mM glucose + 10% dialyzed FBS, 0.569 µM
[30] = RPMI 5 mM glucose + 10% dialyzed FBS, 1.71 µM
[31] = RPMI 5 mM glucose + 10% dialyzed FBS, 5.12 µM
[32] = RPMI 5 mM glucose + 10% dialyzed FBS, 15.4 µM
[33] = RPMI 5 mM glucose + 10% dialyzed FBS, 46.1 µM

Compound | cell viability [1] [%] | cell viability [2] [%] | cell viability [3] [%] | cell viability [4] [%] | cell viability [5] [%] | cell viability [6] [%] | cell viability [7] [%] | cell viability [8] [%] | cell viability [9] [%] | cell viability [10] [%] | cell viability [11] [%] | cell viability [12] [%] | cell viability [13] [%] | cell viability [14] [%] | cell viability [15] [%] | cell viability [16] [%] | cell viability [17] [%] | cell viability [18] [%] | cell viability [19] [%] | cell viability [20] [%] | cell viability [21] [%] | cell viability [22] [%] | cell viability [23] [%] | cell viability [24] [%] | cell viability [25] [%] | cell viability [26] [%] | cell viability [27] [%] | cell viability [28] [%] | cell viability [29] [%] | cell viability [30] [%] | cell viability [31] [%] | cell viability [32] [%] | cell viability [33] [%]
C[S+]([O-])c1ccc(-c2nc(-c3ccc(F)cc3)c(-c3ccncc3)[nH]2)cc1 (stereo not given) | 103 | 102 | 97.3 | 111 | 109 | 108 | 107 | 93.6 | 53.5 | 3.78 | 1.78 | 93.8 | 92.2 | 103 | 99 | 102 | 92.8 | 102 | 64.2 | 46.6 | 3.17 | 1.83 | 96.6 | 103 | 99.7 | 97.3 | 98.7 | 99.4 | 98.6 | 74.2 | 45.4 | 3.69 | 2.1
COc1cc(OC)c(NC(=O)Nc2cc(C)on2)cc1Cl | 94.9 | 98.8 | 110 | 99.6 | 101 | 106 | 102 | 106 | 107 | 110 | 106 | 90.3 | 95.9 | 96.8 | 98.2 | 108 | 104 | 95.5 | 106 | 107 | 102 | 101 | 98.1 | 90.7 | 97 | 97.8 | 96.5 | 96.5 | 106 | 102 | 96.2 | 91.7 | 92
O=C1CCc2ccc(OCCCCN3CCN(c4cccc(Cl)c4Cl)CC3)cc2N1 | 99 | 101 | 99.7 | 85 | 110 | 98.9 | 104 | 104 | 89.9 | 106 | 87.3 | 106 | 110 | 106 | 74.3 | 107 | 101 | 102 | 100 | 106 | 105 | 78.3 | 92.8 | 98.9 | 96.9 | 80.5 | 98.7 | 106 | 100 | 89.2 | 93.6 | 94.1 | 73.1
Cc1cc(Cl)ccc1OCCCC(=O)NO | 102 | 105 | 105 | 116 | 106 | 105 | 101 | 98.6 | 78.3 | 15 | 3.84 | 97.8 | 102 | 108 | 110 | 101 | 98.2 | 99.4 | 81.2 | 57.9 | 17.4 | 3.91 | 113 | 104 | 108 | 111 | 111 | 102 | 100 | 35.9 | 37.2 | 5.67 | 3.42
Cc1ccc(C(=O)c2cc(O)c(O)c([N+](=O)[O-])c2)cc1 | 93.6 | 93.5 | 95.5 | 103 | 101 | 104 | 104 | 102 | 90.9 | 101 | 105 | 90.2 | 88.2 | 85.9 | 85.8 | 102 | 103 | 95.1 | 94.6 | 84.3 | 102 | 102 | 82.5 | 93.4 | 95 | 91.8 | 89.3 | 93.6 | 99.2 | 91 | 84.7 | 89.5 | 91.4
CN(C)CC/C=C1/c2ccccc2COc2ccc(CC(=O)O)cc21 | 118 | 112 | 116 | 120 | 125 | 125 | 122 | 126 | 129 | 125 | 131 |  |  |  |  |  |  |  |  |  |  |  | 122 | 114 | 122 | 141 | 140 | 136 | 146 | 135 | 134 | 136 | 138
COC1=CC2=C(C=C1OC)[C@H]3[C@@H](CO2)OC4=C(C=CC5=C4\C=C/C(C)(C)O5)C3=O | 95.5 | 103 | 96.9 | 99.9 | 93.5 | 102 | 93.5 | 69.7 | 67.7 | 65.6 | 2.52 | 89 | 94.9 | 98.9 | 95.9 | 69.6 | 80 | 62.2 | 52.1 | 48.3 | 46.5 | 3.34 | 84.1 | 89.1 | 93.8 | 88.9 | 74.4 | 79.1 | 69.3 | 62.1 | 58.5 | 60.9 | 3.49
CC[C@@]1(O)C[C@H](O[C@H]2C[C@H](N(C)C)[C@H](O[C@H]3C[C@H](O)[C@H](O[C@H]4CCC(=O)[C@H](C)O4)[C@H](C)O3)[C@H](C)O2)c2c(cc3c(c2O)C(=O)c2c(O)cccc2C3=O)[C@H]1C(=O)OC | 94.5 | 104 | 97 | 102 | 103 | 106 | 109 | 99.9 | 94.5 | 85.5 | 90.1 | 94.7 | 96.5 | 96.8 | 98.7 | 102 | 99 | 97.2 | 73.2 | 75.7 | 63.9 | 53.5 | 95.5 | 91.1 | 90.8 | 93.5 | 94.9 | 106 | 98.7 | 84.2 | 78 | 76.8 | 63.3
C[C@@H]1CC[C@@]2(OC1)OC1CC3C4CC=C5CC(O)CCC5(C)C4CCC3(C)C1[C@@H]2C (stereo not given in full) | 101 | 105 | 97 | 104 | 107 | 106 | 112 | 106 | 110 | 25.8 | 6.49 | 98.9 | 99.9 | 102 | 106 | 106 | 99.3 | 104 | 108 | 118 | 86.8 | 36.4 | 92 | 96.3 | 92.3 | 99.3 | 97 | 106 | 105 | 105 | 119 | 73.8 | 16.8
C[C@@H]1C[C@H]2[C@@H]3CC\C4=C\C(=O)\C=C/[C@]4(C)[C@@]3(Cl)[C@@H](O)C[C@]2(C)[C@@]1(OC(=O)C5=CC=CO5)C(=O)CCl | 98.5 | 93.7 | 71.9 | 66.9 | 64.6 | 64.7 | 60.8 | 61.6 | 57.9 | 40.9 | 50 | 99.2 | 97.7 | 65.4 | 54.6 | 52.1 | 49.3 | 53.7 | 51.3 | 41.6 | 32.6 | 40.2 | 93 | 84.6 | 59.1 | 50.6 | 44.1 | 46.2 | 40 | 41.2 | 35.8 | 30.2 | 30.7
NC\1=N\C(=O)N(\C=C1)[C@H]\2[C@H](O)[C@H](O)C(=C2F)\CO | 95.2 | 106 | 104 | 105 | 105 | 106 | 104 | 60 | 28 | 19.3 | 16.5 | 89.4 | 96.8 | 96.3 | 106 | 103 | 114 | 101 | 95.7 | 47.8 | 29.1 | 16.9 | 91.8 | 114 | 114 | 116 | 115 | 108 | 100 | 89.4 | 67.9 | 23.4 | 11.4
N#CC(=C(/N)Sc1ccccc1N)/C(C#N)=C(\N)Sc1ccccc1N | 115 | 121 | 120 | 128 | 131 | 125 | 131 | 120 | 126 | 124 | 111 |  |  |  |  |  |  |  |  |  |  |  |  |  |  |  |  |  |  |  |  |  | 
CC(C)(C)NC(=O)[C@H]1CC[C@H]2[C@@H]3CC[C@H]4NC(=O)\C=C/[C@]4(C)[C@H]3CC[C@]12C | 101 | 109 | 106 | 107 | 102 | 103 | 111 | 107 | 109 | 27.7 | 12.7 | 83.5 | 104 | 103 | 108 | 109 | 109 | 109 | 115 | 103 | 31.6 | 10.8 | 94.1 | 100 | 102 | 100 | 107 | 112 | 108 | 115 | 113 | 81.4 | 35.6
OC1=CC=C(C=C1)\C2=C\C(=O)C3=C(O2)C=C(O)C=C3O | 110 | 112 | 113 | 119 | 114 | 120 | 116 | 108 | 107 | 108 | 109 | 111 | 109 | 112 | 111 | 105 | 106 | 104 | 105 | 104 | 109 | 96.6 | 117 | 120 | 119 | 122 | 118 | 113 | 115 | 109 | 110 | 103 | 96.4
Oc1cc(O)cc(/C=C/c2ccc(O)c(O)c2)c1 | 103 | 103 | 100 | 106 | 103 | 109 | 106 | 111 | 98 | 85.2 | 28.3 | 97.5 | 92.7 | 101 | 104 | 102 | 97.8 | 105 | 97 | 85 | 91.1 | 45.6 | 87.6 | 88.3 | 101 | 104 | 102 | 104 | 93 | 101 | 93.6 | 84.4 | 40.7
COc1cccc2c1C(=O)c1c(O)c3c(c(O)c1C2=O)C[C@@](O)(C(C)=O)C[C@@H]3O[C@H]1C[C@H](N)[C@H](O)[C@H](C)O1 | 107 | 112 | 115 | 109 | 114 | 101 | 6.62 | 7.98 | 8.25 | 9.65 | 8.17 | 94.8 | 112 | 113 | 104 | 103 | 73.2 | 7.42 | 7.61 | 7.8 | 7.04 | 9.59 | 102 | 107 | 107 | 106 | 98 | 70.8 | 8.12 | 7.49 | 7.97 | 7.6 | 8.42
